Results taken from US20130039951A1, “Process Of Preparing A Stabilized And Solubilized Formulation Of Sirolimus Derivatives” (DONG-A PHARM. CO., LTD., priority 2011, published 2013).

Assays:
[1] = Elution test of tablets in distilled water, paddle method, HPLC; assay type: physicochemical; details: 900 mL distilled water, 37.5° C., 10 mg everolimus, after 1 hour
Protocol: The granules of the examples were mixed with pharmaceutical excipients as set forth in Table 1 and then tableted to give a tablet. A direct compressing method was used to prepare a tablet comprising 10 mg of a sirolimus derivative with a hardness of 13 to 15 Kp. However, the formulation prepared from Comparative Example 1 had difficulties in being mixed with the pharmaceutical excipients of Table 1 and also met with an obstacle in a tableting process so that it was subjected to an additional milling process and controlled to have a granularity of 200 to 300 μm before being mixed with the excipients and tableted.
The tablets as obtained were evaluated for their elution property. 900 mL of an elution liquid (distilled water) was put into an elution tester and the granules as obtained in Examples 1 to 6 were taken in an amount corresponding to a dosage of 10 mg of everolimus and subjected to an elution test at 37.5° C. with 50 cycles per a minute by using a paddle method for 2 hours. For each […] taken in accordance with a predetermined schedule, the concentration of everolimus in the elution liquid was quantified by using a high performance liquid chromatography. […]

[2] = Stability: storage in glass vial at 80° C. for 60 hours, drug content by HPLC; assay type: physicochemical
Protocol: For Examples 1 to 6 and Comparative Examples 2 and 3, their stability was evaluated and the results were compared. Each of the samples was placed in a glass vial and stored at 80° C. for 60 hours, and then the content of the drug was quantified by using a high performance liquid chromatography.

CO[C@H]1C[C@@H]2CC[C@@H](C)[C@@](O)(O2)C(=O)C(=O)N2CCCC[C@H]2C(=O)O[C@H]([C@H](C)C[C@@H]2CC[C@@H](OCCO)[C@H](OC)C2)CC(=O)[C@H](C)/C=C(\C)[C@@H](O)[C@@H](OC)C(=O)[C@H](C)C[C@H](C)/C=C/C=C/C=C/1C [Comparative Example 2, 40-O hydroxyethyl rapamycin]
elution rate of everolimus [1]: about 37%
content after being left for 60 hours ([2]; 80° C., 60 hours): 23.5%
Content, initial ([2]; before storage): 100.4 wt %
Content, After 60 hours ([2]; stored at 80° C. for 60 hours in glass vial): 23.5 wt %
